{
  "source": "ChEMBL document CHEMBL1126965",
  "about": "“Synthesis and vitro antibacterial activity of hygromycin a analogs modified at the C4 aryl position” (1993)",
  "data": [
    {"tested_on": "Brachyspira hyodysenteriae", "assay": "In vitro antibacterial activity against Serpulina (Treponema) hyodysenteriae was tested and is expressed as minimum inhibitory concentration: Value ranges from (50-100 ug/mL)", "assay_type": "functional", "units": {"MIC": "µg/mL"}, "values": [
      {"smiles": "C/C(=C\\c1ccc(OCCO)c(O)c1)C(=O)N[C@@H]1[C@H](O)[C@@H](O)[C@H]2OCO[C@H]2[C@@H]1O", "MIC": 50}
    ]},
    {"tested_on": "Brachyspira hyodysenteriae", "assay": "In vitro antibacterial activity against Serpulina (Treponema) hyodysenteriae was tested and is expressed as minimum inhibitory concentration: Value ranges from (0.39-0.78 ug/mL)", "assay_type": "functional", "units": {"MIC": "µg/mL"}, "values": [
      {"smiles": "C/C(=C\\c1ccc(OCC2CC2)c(O)c1)C(=O)N[C@@H]1[C@H](O)[C@@H](O)[C@H]2OCO[C@H]2[C@@H]1O", "MIC": 0.39}
    ]},
    {"tested_on": "Brachyspira hyodysenteriae", "assay": "In vitro antibacterial activity against Serpulina (Treponema) hyodysenteriae was tested and is expressed as minimum inhibitory concentration: Value ranges from (12.5-25 ug/mL)", "assay_type": "functional", "units": {"MIC": "µg/mL"}, "values": [
      {"smiles": "C=CCNc1ccc(/C=C(\\C)C(=O)N[C@@H]2[C@H](O)[C@@H](O)[C@H]3OCO[C@H]3[C@@H]2O)cc1O", "MIC": 12.5},
      {"smiles": "CCCNc1ccc(/C=C(\\C)C(=O)N[C@@H]2[C@H](O)[C@@H](O)[C@H]3OCO[C@H]3[C@@H]2O)cc1O", "MIC": 12.5},
      {"smiles": "CCCCc1ccc(/C=C(\\C)C(=O)N[C@@H]2[C@H](O)[C@@H](O)[C@H]3OCO[C@H]3[C@@H]2O)cc1", "MIC": 12.5}
    ]},
    {"tested_on": "Brachyspira hyodysenteriae", "assay": "In vitro antibacterial activity against Serpulina (Treponema) hyodysenteriae was tested and is expressed as minimum inhibitory concentration: Value ranges from (0.78-1.56 ug/mL)", "assay_type": "functional", "units": {"MIC": "µg/mL"}, "values": [
      {"smiles": "CC(=O)[C@H]1O[C@@H](Oc2ccc(/C=C(\\C)C(=O)N[C@@H]3[C@H](O)[C@@H](O)[C@H]4OCO[C@H]4[C@@H]3O)cc2O)[C@@H](O)[C@@H]1O", "note": "[HYGROMYCIN A]", "MIC": 0.78},
      {"smiles": "CSCCCOc1ccc(/C=C(\\C)C(=O)N[C@@H]2[C@H](O)[C@@H](O)[C@H]3OCO[C@H]3[C@@H]2O)cc1O", "MIC": 0.78},
      {"smiles": "CCCOc1ccc(/C=C(\\C)C(=O)N[C@@H]2[C@H](O)[C@@H](O)[C@H]3OCO[C@H]3[C@@H]2O)cc1O", "MIC": 0.78}
    ]},
    {"tested_on": "Brachyspira hyodysenteriae", "assay": "In vitro antibacterial activity against Serpulina (Treponema) hyodysenteriae was tested and is expressed as minimum inhibitory concentration: Value ranges from (3.13-6.25 ug/mL)", "assay_type": "functional", "units": {"MIC": "µg/mL"}, "values": [
      {"smiles": "C/C(=C\\c1ccc(OCc2cccs2)c(O)c1)C(=O)N[C@@H]1[C@H](O)[C@@H](O)[C@H]2OCO[C@H]2[C@@H]1O", "MIC": 3.13},
      {"smiles": "CCCCc1ccc(/C=C(\\C)C(=O)N[C@@H]2[C@H](O)[C@@H](O)[C@H]3OCO[C@H]3[C@@H]2O)cc1O", "MIC": 3.13}
    ]},
    {"tested_on": "Brachyspira hyodysenteriae", "assay": "In vitro antibacterial activity against Serpulina (Treponema) hyodysenteriae was tested and is expressed as minimum inhibitory concentration: Value ranges from ([…] ug/mL)", "assay_type": "functional", "units": {"MIC": "µg/mL"}, "values": [
      {"smiles": "CC(=O)CCCOc1ccc(/C=C(\\C)C(=O)N[C@@H]2[C@H](O)[C@@H](O)[C@H]3OCO[C@H]3[C@@H]2O)cc1O", "MIC": 12.5}
    ]},
    {"tested_on": "Brachyspira hyodysenteriae", "assay": "In vitro antibacterial activity against Serpulina (Treponema) hyodysenteriae was tested and is expressed as minimum inhibitory concentration: Value ranges from (6.25-12.5 ug/mL)", "assay_type": "functional", "units": {"MIC": "µg/mL"}, "values": [
      {"smiles": "COc1ccc(/C=C(\\C)C(=O)N[C@@H]2[C@H](O)[C@@H](O)[C@H]3OCO[C@H]3[C@@H]2O)cc1F", "MIC": 6.25}
    ]},
    {"tested_on": "Brachyspira hyodysenteriae", "assay": "In vitro antibacterial activity against Serpulina (Treponema) hyodysenteriae", "assay_type": "functional", "units": {"MIC": "µg/mL"}, "values": [
      {"smiles": "CCCCCOc1ccc(/C=C(\\C)C(=O)N[C@@H]2[C@H](O)[C@@H](O)[C@H]3OCO[C@H]3[C@@H]2O)cc1O", "MIC": "> 200"},
      {"smiles": "C=C(C)COc1ccc(/C=C(\\C)C(=O)N[C@@H]2[C@H](O)[C@@H](O)[C@H]3OCO[C@H]3[C@@H]2O)cc1O", "MIC": 3.13},
      {"smiles": "CCCCOc1ccc(/C=C(\\C)C(=O)N[C@@H]2[C@H](O)[C@@H](O)[C@H]3OCO[C@H]3[C@@H]2O)cc1O", "MIC": 1.56},
      {"smiles": "CCNc1ccc(/C=C(\\C)C(=O)N[C@@H]2[C@H](O)[C@@H](O)[C@H]3OCO[C@H]3[C@@H]2O)cc1O", "MIC": 100},
      {"smiles": "C#CCOc1ccc(/C=C(\\C)C(=O)N[C@@H]2[C@H](O)[C@@H](O)[C@H]3OCO[C@H]3[C@@H]2O)cc1F", "MIC": 6.25},
      {"smiles": "CC(=O)C1O[C@@H](Oc2ccc(/C=C(\\C)C(=O)N[C@@H]3[C@H](O)[C@@H](O)[C@H]4OCO[C@H]4[C@@H]3O)cc2O)[C@@H](O)C1Sc1ccccc1", "note": "(some centres undefined)", "MIC": "> 100"},
      {"smiles": "C/C(=C\\c1ccc(OCC(N)=O)c(O)c1)C(=O)N[C@@H]1[C@H](O)[C@@H](O)[C@H]2OCO[C@H]2[C@@H]1O", "MIC": "> 200"},
      {"smiles": "C/C(=C\\c1ccc(OC2CCCC2)c(O)c1)C(=O)N[C@@H]1[C@H](O)[C@@H](O)[C@H]2OCO[C@H]2[C@@H]1O", "MIC": 6.25},
      {"smiles": "C/C(=C\\c1ccc(N)c(O)c1)C(=O)N[C@@H]1[C@H](O)[C@@H](O)[C@H]2OCO[C@H]2[C@@H]1O", "MIC": "> 200"},
      {"smiles": "C/C(=C\\c1ccc(OCOCCO)c(O)c1)C(=O)N[C@@H]1[C@H](O)[C@@H](O)[C@H]2OCO[C@H]2[C@@H]1O", "MIC": 25},
      {"smiles": "C=CC(C)Oc1ccc(/C=C(\\C)C(=O)N[C@@H]2[C@H](O)[C@@H](O)[C@H]3OCO[C@H]3[C@@H]2O)cc1O", "note": "(some centres undefined)", "MIC": 25},
      {"smiles": "C/C(=C\\c1ccc(N2CCCC2)cc1)C(=O)N[C@@H]1[C@H](O)[C@@H](O)[C@H]2OCO[C@H]2[C@@H]1O", "MIC": 6.25},
      {"smiles": "CCCN(CC)c1ccc(/C=C(\\C)C(=O)N[C@@H]2[C@H](O)[C@@H](O)[C@H]3OCO[C@H]3[C@@H]2O)cc1O", "MIC": "> 200"},
      {"smiles": "C/C(=C\\c1ccc(OCC(O)CO)c(O)c1)C(=O)N[C@@H]1[C@H](O)[C@@H](O)[C@H]2OCO[C@H]2[C@@H]1O", "note": "(some centres undefined)", "MIC": 25},
      {"smiles": "CCOc1ccc(/C=C(\\C)C(=O)N[C@@H]2[C@H](O)[C@@H](O)[C@H]3OCO[C@H]3[C@@H]2O)cc1O", "MIC": 1.56},
      {"smiles": "C=CCOc1ccc(/C=C(\\C)C(=O)N[C@@H]2[C@H](O)[C@@H](O)[C@H]3OCO[C@H]3[C@@H]2O)cc1O", "MIC": 0.78},
      {"smiles": "CCOCOc1ccc(/C=C(\\C)C(=O)N[C@@H]2[C@H](O)[C@@H](O)[C@H]3OCO[C@H]3[C@@H]2O)cc1O", "MIC": 25},
      {"smiles": "C/C(=C\\c1ccc(F)c(F)c1)C(=O)N[C@@H]1[C@H](O)[C@@H](O)[C@H]2OCO[C@H]2[C@@H]1O", "MIC": "> 200"},
      {"smiles": "COc1ccc(/C=C(\\C)C(=O)N[C@@H]2[C@H](O)[C@@H](O)[C@H]3OCO[C@H]3[C@@H]2O)cc1O", "MIC": 12.5},
      {"smiles": "CC(=O)C1=C[C@H](O)[C@H](Oc2ccc(/C=C(\\C)C(=O)N[C@@H]3[C@H](O)[C@@H](O)[C@H]4OCO[C@H]4[C@@H]3O)cc2O)O1", "MIC": 25},
      {"smiles": "C/C(=C\\c1ccc(OCc2ccccc2)c(O)c1)C(=O)N[C@@H]1[C@H](O)[C@@H](O)[C@H]2OCO[C@H]2[C@@H]1O", "MIC": 25},
      {"smiles": "C/C(=C\\c1ccc(O)c(O)c1)C(=O)NC1[C@@H](O)[C@@H]2OCO[C@@H]2[C@H](O)[C@H]1O", "note": "(some centres undefined)", "MIC": 200},
      {"smiles": "C/C(=C\\c1ccc(-c2ccccc2)cc1)C(=O)N[C@@H]1[C@H](O)[C@@H](O)[C@H]2OCO[C@H]2[C@@H]1O", "MIC": 12.5},
      {"smiles": "C/C(=C\\c1ccc(Cc2ccccc2)c(O)c1)C(=O)N[C@@H]1[C@H](O)[C@@H](O)[C@H]2OCO[C@H]2[C@@H]1O", "MIC": "> 200"},
      {"smiles": "C#CCOc1ccc(/C=C(\\C)C(=O)N[C@@H]2[C@H](O)[C@@H](O)[C@H]3OCO[C@H]3[C@@H]2O)cc1O", "MIC": 6.25},
      {"smiles": "CC(=O)[C@@H]1C[C@H](O)[C@H](Oc2ccc(/C=C(\\C)C(=O)N[C@@H]3[C@H](O)[C@@H](O)[C@H]4OCO[C@H]4[C@@H]3O)cc2O)O1", "MIC": "> 100"},
      {"smiles": "CSC1C(C(C)=O)O[C@@H](Oc2ccc(/C=C(\\C)C(=O)N[C@@H]3[C@H](O)[C@@H](O)[C@H]4OCO[C@H]4[C@@H]3O)cc2O)[C@H]1O", "note": "(some centres undefined)", "MIC": "> 100"},
      {"smiles": "C/C(=C\\c1ccc(N2CCCC2)c(F)c1)C(=O)N[C@@H]1[C@H](O)[C@@H](O)[C@H]2OCO[C@H]2[C@@H]1O", "MIC": 6.25},
      {"smiles": "C=CCN(C(C)=O)c1ccc(/C=C(\\C)C(=O)N[C@@H]2[C@H](O)[C@@H](O)[C@H]3OCO[C@H]3[C@@H]2O)cc1O", "MIC": "> 200"},
      {"smiles": "C/C(=C\\c1cccc(O)c1)C(=O)N[C@@H]1[C@H](O)[C@@H](O)[C@H]2OCO[C@H]2[C@@H]1O", "MIC": "> 200"},
      {"smiles": "C/C(=C\\c1ccc(OCCF)c(O)c1)C(=O)N[C@@H]1[C@H](O)[C@@H](O)[C@H]2OCO[C@H]2[C@@H]1O", "MIC": 6.25},
      {"smiles": "C=CCOc1ccc(/C=C(\\C)C(=O)N[C@@H]2[C@H](O)[C@@H](O)[C@H]3OCO[C@H]3[C@@H]2O)cc1F", "MIC": 1.56}
    ]}
  ]
}
